Measurements from US9296745B2, “Diacylglycerol acyltransferase 2 inhibitors” (Pfizer Inc., priority 2012, dated 2016).

Target: Human DGAT2 (hDGAT2) (Homo sapiens (Human), UniProt Q96PD7)
Experiment: In vitro DGAT2 assay, IC50 determination with hDGAT2 membrane fraction
Type: biochemical
Details: geometric mean; background for complete inhibition of DGAT2 obtained with 50 μM (1R,2R)-2-({3′-Fluoro-4′-[(6-fluoro-1,3-benzothiazol-2-yl)amino]-1,1′-biphenyl-4-yl}carbonyl)cyclopentanecarboxylic acid; read-out: DGAT2 IC50
Procedure: Recombinant baculovirus for the FLAG-tagged hDGAT2 was generated in SF9 insect cells using Bac-to-Bac baculovirus expression system (Invitrogen) according to the manufacturer's protocol. For the expression of hDGAT2, SF9 cells (20 L) grown in Sf900II media were infected with hDGAT2 baculovirus at a multiplicity of infection of 1 in a Wave Bioreactor System 20/50P wave bag (GE Healthcare). After 40 hours of infection, the cells were then harvested by centrifugation at 5,000×g. The cell pellets were washed by resuspending in phosphate buffered saline (PBS) and collected by centrifugation at 5,000×g. The cell paste was flash frozen in liquid N2 and stored at −80° C. until needed. All operations below were at 4° C. unless otherwise noted. The cells were resuspended in lysis buffer (50 mM Tris-HCl, pH 8.0, 250 mM sucrose) including 1 mM ethylenediaminetetraacetic acid (EDTA) and the complete protease inhibitor cocktail (Roche Diagnostics) at a ratio of 3 ml buffer per 1 g cell paste. The cells were lysed by dounce homogenizer. The cell debris was removed by centrifugation at 1,000×g for 20 min, and the supernatant was centrifuged at 100,000×g for 1 hour. The resulting pellet was rinsed three times by filling ultracentrifuge tubes to the top with ice cold PBS before decanting. The washed pellet was resuspended with gentle stirring for 1 hour in lysis buffer containing 8 mM 3-[(3-cholamidopropyl)dimethylammonio]-1-propanesulfonate (CHAPS) at a ratio of 1 mL buffer per 1 g of original cell paste and centrifuged again at 100,000×g for 1 hour. The resulting supernatant (hDGAT2 membrane fraction) was aliquotted, flash frozen in liquid N2, and stored at −80° C. until use.
To 1 μL of compounds dissolved in 100% DMSO and spotted at the bottom of each well, 5 μL of 0.04% bovine serum albumin (BSA) (fatty acid free, Sigma Aldrich) was added and the mixture was incubated at room temperature for 20 minutes. To this mixture, 10 μL of hDGAT2 membrane fraction (0.01 mg/mL) diluted in 100 mM Hepes-NaOH, pH 7.4, 20 mM MgCl2 containing 200 nM methyl arachidonyl fluorophosphonate (Cayman Chemical; dried from ethyl acetate stock solution under argon gas and dissolved in DMSO as 5 mM stock) was added. […] The reaction mixtures were incubated at room temperature for 40 min and the reactions were stopped by addition of 5 μL of 1% H3PO4. After the addition of 45 μL MicroScint-E (Perkin-Elmer), plates were sealed with Top Seal-A covers (Perkin-Elmer) and phase partitioning of substrates and products was achieved using a HT-91100 microplate orbital shaker (Big Bear Automation, Santa Clara, Calif.). Plates were centrifuged at 2,000×g for 1 min in an Allegra 6R Centrifuge (Beckman Coulter) and then were sealed again with fresh covers before reading in a 1450 Microbeta Wallac Trilux Scintillation Counter (Perkin Elmer). DGAT2 activity was measured by quantifying the generated product [^14C]tridecanoylglycerol in the upper organic phase.
Inhibitors were tested at eleven different concentrations to generate IC50 values for each compound. […] Results are reported as geometric mean IC50 values.

Sequence of Human DGAT2 (hDGAT2) (Q96PD7 whole entry): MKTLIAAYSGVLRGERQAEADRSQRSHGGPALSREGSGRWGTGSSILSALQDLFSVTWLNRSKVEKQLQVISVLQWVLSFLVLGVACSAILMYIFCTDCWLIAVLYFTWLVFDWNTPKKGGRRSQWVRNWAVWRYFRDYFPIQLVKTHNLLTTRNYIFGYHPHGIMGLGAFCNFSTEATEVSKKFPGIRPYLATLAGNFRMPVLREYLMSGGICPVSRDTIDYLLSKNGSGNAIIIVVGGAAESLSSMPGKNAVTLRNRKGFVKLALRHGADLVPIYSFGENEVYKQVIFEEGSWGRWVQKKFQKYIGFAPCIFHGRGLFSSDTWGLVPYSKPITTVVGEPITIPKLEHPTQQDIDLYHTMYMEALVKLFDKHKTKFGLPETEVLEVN

| Structure (SMILES) | IC50 [nM] |
| --- | --- |
| O=C([C@@H]1CCCN(c2ccc3nc(-c4ccnc(N5CCOCC5)n4)[nH]c3n2)C1)N1CCCC1 [Example 25, (R)-(1-(2-(2-Morpholinopyrimidin-4-yl)-3H-imidazo[4,5-b]pyridin-5-yl)piperidin-3-yl)(pyrrolidin-1-yl)methanone] | 297 |
| O=C1COc2ccc(-c3nc4ccc(N5CCC[C@@H](C(=O)N6CCCC6)C5)nc4[nH]3)cc2N1 [Example 27, (R)-6-(5-(3-(Pyrrolidine-1-carbonyl)piperidin-1-yl)-3H-imidazo[4,5-b]pyridin-2-yl)-2H-benzo[b][1,4]oxazin-3(4H)-one] | 1390 |
| O=C([C@@H]1CCCN(c2ccc3nc(C4CC4)[nH]c3n2)C1)N1CCCC1 [Example 29, (R)-(1-(2-Cyclopropyl-3H-imidazo[4,5-b]pyridin-5-yl)piperidin-3-yl)(pyrrolidin-1-yl)methanone] | 4370 |
| CS(=O)(=O)Nc1cccc(-c2nc3ccc(N4CCC[C@@H](C(=O)N5CCCC5)C4)nc3[nH]2)c1 [Example 30, (R)-N-(3-(5-(3-(Pyrrolidine-1-carbonyl)piperidin-1-yl)-3H-imidazo[4,5-b]pyridin-2-yl)phenyl)methanesulfonamide] | 1400 |
| CCc1cc(-c2nc3ccc(N4CCC[C@@H](C(=O)N5CCCC5)C4)nc3[nH]2)no1 [Example 32, (R)-(1-(2-(5-Ethylisoxazol-3-yl)-3H-imidazo[4,5-b]pyridin-5-yl)piperidin-3-yl)(pyrrolidin-1-yl)methanone] | 239 |
| Cc1cncc(-c2nc3ccc(N4CCC[C@@H](C(=O)N5CCCC5)C4)nc3[nH]2)c1 [Example 33, (R)-(1-(2-(5-Methylpyridin-3-yl)-3H-imidazo[4,5-b]pyridin-5-yl)piperidin-3-yl)(pyrrolidin-1-yl)methanone] | 97 |
| O=C([C@@H]1CCCN(c2ccc3nc(-c4ccc(OC(F)(F)F)cc4)[nH]c3n2)C1)N1CCCC1 [Example 34, (R)-Pyrrolidin-1-yl(1-(2-(4-(trifluoromethoxy)phenyl)-3H-imidazo[4,5-b]pyridin-5-yl)piperidin-3-yl)methanone] | 24.8 |
| O=C([C@@H]1CCCN(c2ccc3nc(-c4cccc(F)c4)[nH]c3n2)C1)N1CCCC1 [Example 35, (R)-(1-(2-(3-Fluorophenyl)-3H-imidazo[4,5-b]pyridin-5-yl)piperidin-3-yl)(pyrrolidin-1-yl)methanone] | 21.2 |
| COc1cccc(-c2nc3ccc(N4CCC[C@@H](C(=O)N5CCCC5)C4)nc3[nH]2)c1 [Example 36, (R)-(1-(2-(3-Methoxyphenyl)-3H-imidazo[4,5-b]pyridin-5-yl)piperidin-3-yl)(pyrrolidin-1-yl)methanone] | 20.7 |
| COc1cccc(-c2nc3ccc(N4CCC[C@@H](C(=O)N5CCCC5)C4)nc3[nH]2)n1 [Example 37, (R)-(1-(2-(6-Methoxypyridin-2-yl)-3H-imidazo[4,5-b]pyridin-5-yl)piperidin-3-yl)(pyrrolidin-1-yl)methanone] | 12.6 |
| O=C([C@@H]1CCCN(c2ccc3nc(-c4cccc(N5CCCC5)n4)[nH]c3n2)C1)N1CCCC1 [Example 38, (R)-Pyrrolidin-1-yl(1-(2-(6-(pyrrolidin-1-yl)pyridin-2-yl)-3H-imidazo[4,5-b]pyridin-5-yl)piperidin-3-yl)methanone] | 7.81 |
| O=C([C@@H]1CCCN(c2ccc3nc(-c4coc(-c5ccccc5)n4)[nH]c3n2)C1)N1CCCC1 [Example 39, (R)-(1-(2-(2-Phenyloxazol-4-yl)-3H-imidazo[4,5-b]pyridin-5-yl)piperidin-3-yl)(pyrrolidin-1-yl)methanone] | 6.85 |
| CCc1csc(-c2nc3ccc(N4CCC[C@@H](C(=O)N5CCCC5)C4)nc3[nH]2)n1 [Example 40, (R)-(1-(2-(4-Ethylthiazol-2-yl)-3H-imidazo[4,5-b]pyridin-5-yl)piperidin-3-yl)(pyrrolidin-1-yl)methanone] | 6.47 |
| O=C([C@@H]1CCCN(c2ccc3nc(-c4cccc(Cl)c4)[nH]c3n2)C1)N1CCCC1 [Example 41, (R)-(1-(2-(3-Chlorophenyl)-3H-imidazo[4,5-b]pyridin-5-yl)piperidin-3-yl)(pyrrolidin-1-yl)methanone] | 4.56 |
| CC(C)(C)c1csc(-c2nc3ccc(N4CCC[C@@H](C(=O)N5CCCC5)C4)nc3[nH]2)n1 [Example 42, (R)-(1-(2-(4-tert-Butylthiazol-2-yl)-3H-imidazo[4,5-b]pyridin-5-yl)piperidin-3-yl)(pyrrolidin-1-yl)methanone] | 3.18 |
| O=C([C@@H]1CCCN(c2ccc3nc(-c4cccc(OC(F)F)c4)[nH]c3n2)C1)N1CCCC1 [Example 43, (R)-(1-(2-(3-(Difluoromethoxy)phenyl)-3H-imidazo[4,5-b]pyridin-5-yl)piperidin-3-yl)(pyrrolidin-1-yl)methanone] | 7.41 |
| Cc1cccc(-c2nc3ccc(N4CCC[C@@H](C(=O)N5CCCC5)C4)nc3[nH]2)n1 [Example 44, (R)-(1-(2-(6-Methylpyridin-2-yl)-3H-imidazo[4,5-b]pyridin-5-yl)piperidin-3-yl)(pyrrolidin-1-yl)methanone] | 36.5 |
| N#Cc1cccc(-c2nc3ccc(N4CCC[C@@H](C(=O)N5CCCC5)C4)nc3[nH]2)c1 [Example 47, (R)-3-(5-(3-(Pyrrolidine-1-carbonyl)piperidin-1-yl)-3H-imidazo[4,5-b]pyridin-2-yl)benzonitrile] | 34.5 |
| O=C([C@@H]1CCCN(c2ccc3nc(COc4ccc(Cl)cc4)[nH]c3n2)C1)N1CCCC1 [Example 48] | 10.7 |
| O=C([C@@H]1CCCN(c2ccc3nc(C4(c5ccccc5)CC4)[nH]c3n2)C1)N1CCCC1 [Example 51, (R)-(1-(2-(1-Phenylcyclopropyl)-3H-imidazo[4,5-b]pyridin-5-yl)piperidin-3-yl)(pyrrolidin-1-yl)methanone] | 69.7 |
| O=C([C@@H]1CCCN(c2ccc3nc(C4CCC4)[nH]c3n2)C1)N1CCCC1 [Example 53, (R)-(1-(2-Cyclobutyl-3H-imidazo[4,5-b]pyridin-5-yl)piperidin-3-yl)(pyrrolidin-1-yl)methanone] | 2530 |
| Cc1cccc(=O)n1Cc1nc2ccc(N3CCC[C@@H](C(=O)N4CCCC4)C3)nc2[nH]1 [Example 57, (R)-6-Methyl-1-((5-(3-(pyrrolidine-1-carbonyl)piperidin-1-yl)-3H-imidazo[4,5-b]pyridin-2-yl)methyl)pyridin-2(1H)-one] | 702 |
| c1ccc(C2CCCN(c3ccc4nc(-c5ccnc(C6CC6)n5)[nH]c4n3)C2)nc1 (stereo not shown) [Example 59, 2-(2-Cyclopropylpyrimidin-4-yl)-5-(3-(pyridin-2-yl)piperidin-1-yl)-3H-imidazo[4,5-b]pyridine] | 858 |
| CN(C)C(=O)[C@@H]1CCCN(c2ccc3nc(-c4cccc(OC(F)F)c4)[nH]c3n2)C1 [Example 60, (R)-1-(2-(3-(Difluoromethoxy)phenyl)-3H-imidazo[4,5-b]pyridin-5-yl)-N,N-dimethylpiperidine-3-carboxamide] | 892 |
| O=C(C1CCCC1)N1CCCC(c2nc3ccc(N4CCC[C@@H](C(=O)N5CCCC5)C4)nc3[nH]2)C1 (stereo partly shown) [Example 62] | 241 |
| O=C([C@@H]1CCCN(c2ccc3nc(-c4ccnc(C5CC5)n4)[nH]c3n2)C1)N1CC[C@H](F)C1 [Example 65, ((R)-1-(2-(2-Cyclopropylpyrimidin-4-yl)-3H-imidazo[4,5-b]pyridin-5-yl)piperidin-3-yl)((S)-3-fluoropyrrolidin-1-yl)methanone] | 59.3 |
| O=C([C@@H]1CCCN(c2ccc3nc(-c4ccnc(C5CC5)n4)[nH]c3n2)C1)N1CCC[C@@H]1CO [Example 66, ((R)-1-(2-(2-Cyclopropylpyrimidin-4-yl)-3H-imidazo[4,5-b]pyridin-5-yl)piperidin-3-yl)((R)-2-(hydroxymethyl)pyrrolidin-1-yl)methanone] | 1050 |
| C[C@@H]1CCCN1C(=O)[C@@H]1CCCN(c2ccc3nc(-c4ccnc(C5CC5)n4)[nH]c3n2)C1 [Example 67, ((R)-1-(2-(2-Cyclopropylpyrimidin-4-yl)-3H-imidazo[4,5-b]pyridin-5-yl)piperidin-3-yl)((R)-2-methylpyrrolidin-1-yl)methanone] | 58.2 |
